Measured values taken from patent US11547681B2, “N-acylethanolamide derivatives and uses thereof” (ELIEM THERAPEUTICS, INC., priority 2016, dated 2023).

Test: in vitro
Conditions: for Measured concentration of analyte PEA, 0 min / Measured concentration of analyte PEA, 10 min / Measured concentration of analyte PEA, 20 min / Measured concentration of analyte PEA, 30 min / Measured concentration of analyte PEA, 60 min / % Remaining of Initial, 0 min / % Remaining of Initial, 10 min / % Remaining of Initial, 20 min / % Remaining of Initial, 30 min / % Remaining of Initial, 60 min / microsomal CLint at 1 μM / half-life at 1 μM / Measured concentration of PEA (analyte) / % Remaining of Initial / microsomal CLint / half-life: male; for Measured concentration of analyte PEA, 0 min / Measured concentration of analyte PEA, 10 min / Measured concentration of analyte PEA, 20 min / Measured concentration of analyte PEA, 30 min / Measured concentration of analyte PEA, 60 min / % Remaining of Initial, 0 min / % Remaining of Initial, 10 min / % Remaining of Initial, 20 min / % Remaining of Initial, 30 min / % Remaining of Initial, 60 min / Measured concentration of PEA (analyte) / % Remaining of Initial: 1 μM; for % Remaining of Initial, 0 min / % Remaining of Initial, 10 min / % Remaining of Initial, 20 min / % Remaining of Initial, 30 min / % Remaining of Initial, 60 min / microsomal CLint at 1 μM / half-life at 1 μM / % Remaining of Initial / microsomal CLint / half-life: microsomes
Description: (§1) Reaction mixture, minus cofactors, was prepared as described below. Test article was added into the reaction mixture at a final concentration of 1 μM. […] An aliquot of the reaction mixture (without cofactor) was equilibrated in a shaking water bath at 37° C. for 3 minutes. The reaction was initiated by the addition of cofactor, and the mixture was incubated in a shaking water bath at 37° C. Aliquots (100 μL) were withdrawn at 0, 10, 20, 30, and 60 minutes. Test article samples were immediately combined with 300 μL of ice-cold acetonitrile containing 1% formic acid. Control samples were immediately combined with 400 μL of ice-cold 50/50 acetonitrile (ACN)/dH2O containing 0.1% formic acid and internal standard to terminate the reaction. Samples were then mixed and centrifuged to precipitate proteins. Calibration standards were prepared in matched matrix. Samples and standards were assayed by LC-MS/MS using electrospray ionization for both dosed prodrug and expected drug (PEA). Analytical conditions are outlined in Appendix 8-1. Test article concentration at each time point was compared to test article concentration at time 0 to determine the percent remaining at each time point. Half-lives were calculated using GraphPad software, fitting to a single-phase exponential decay equation.
Reaction mixture, minus cofactors, was prepared as described below. Test article was added into the reaction mixture at a final concentration of 1 μM. […] An aliquot of the reaction mixture (without cofactor) was equilibrated in a shaking water bath at 37° C. for 5 minutes. Reaction was initiated by the addition of cofactor, and the mixture was incubated in a shaking water bath at 37° C. Aliquots (100 μL) were withdrawn at 0, 10, 20, 30, and 60 minutes. Test article samples were immediately combined with 300 μL of ice-cold acetonitrile containing 1% formic acid. Control samples were immediately combined with 400 μL of ice-cold 50/50 acetonitrile (ACN)/dH2O containing 0.1% formic acid and internal standard to terminate the reaction. Samples were then mixed and centrifuged to precipitate proteins. Calibration standards were prepared in matched matrix. Samples and standards were assayed by LC-MS/MS using electrospray ionization for both the dosed prodrug and the expected drug (PEA). Analytical conditions are outlined in Appendix 10-1. Test article concentration at each time point was compared to the test article concentration at time 0 to determine the percent remaining at each time point. Half-lives were calculated using GraphPad software, fitting to a single-phase exponential decay equation.
as §1, with “minutes. Reaction” for “minutes. The reaction”, “300 μL,” for “300 μL”, “Appendix 13-1.” for “Appendix 8-1.”
Reaction mixture, minus cofactors, was prepared as described below.

SMILES | Measured concentration of analyte PEA, 0 min (Beagle, dog, 0 min) | Measured concentration of analyte PEA, 10 min (Beagle, dog, 10 min) | Measured concentration of analyte PEA, 20 min (Beagle, dog, 20 min) | Measured concentration of analyte PEA, 30 min (Beagle, dog, 30 min) | Measured concentration of analyte PEA, 60 min (Beagle, dog, 60 min) | % Remaining of Initial, 0 min (Beagle, dog, 0 h) | % Remaining of Initial, 10 min (Beagle, dog, 10 min) | % Remaining of Initial, 20 min (Beagle, dog, 20 min) | % Remaining of Initial, 30 min (Beagle, dog, 0.5 h) | % Remaining of Initial, 60 min (Beagle, dog, 1 h) | microsomal CLint at 1 μM (Beagle, dog) | half-life at 1 μM (Beagle, dog, Half-life) | Measured concentration of analyte PEA, 0 min (CD-1, mouse, 0 min) | Measured concentration of analyte PEA, 10 min (CD-1, mouse, 10 min) | Measured concentration of analyte PEA, 20 min (CD-1, mouse, 20 min) | Measured concentration of analyte PEA, 30 min (CD-1, mouse, 30 min) | Measured concentration of analyte PEA, 60 min (CD-1, mouse, 60 min) | % Remaining of Initial, 0 min (CD-1, mouse, 0 h) | microsomal CLint at 1 μM (CD-1, mouse) | half-life at 1 μM (CD-1, mouse, Half-life) | further results
CCCCCCCCCCCCCCCC(=O)NCCOC(=O)CCC(=O)OCC(COC(=O)CCCCCCC)OC(=O)CCCCCCC (stereo not shown) [Compound I-3, PEA-Succinate-Glycerol-Di-Caprylic] | 0.00074 µM | 0.023 µM | 0.037 µM | 0.042 µM | 0.053 µM | 100% | 94% | 85% | 85% | 74% | < 23.1 µL/min/mg | > 60 min | 0.0079 µM | 0.025 µM | 0.025 µM | 0.042 µM | 0.025 µM | 100% | < 23.1 µL/min/mg | > 60 min | % Remaining of Initial, 10 min (CD-1, mouse, 10 min): 82%; % Remaining of Initial, 20 min (CD-1, mouse, 20 min): 83%; % Remaining of Initial, 30 min (CD-1, mouse, 0.5 h): 60%; % Remaining of Initial, 60 min (CD-1, mouse, 1 h): 70%; microsomal CLint at 1 μM (CD-1, mouse, calculated value in parentheses): 13.8 µL/min/mg; half-life at 1 μM (CD-1, mouse, Calculated half-life (in parentheses)): 100 min
CCCCCCCCCCCCCCCC(=O)NCCOC(=O)CCC(=O)OC(CO)CO [Compound I-8] | – | – | – | – | – | – | – | – | – | – | > 1380 µL/min/mg | < 1 min | – | – | – | – | – | – | > 1380 µL/min/mg | < 1 min | Measured concentration of PEA (analyte) (Beagle, dog, 0 min): 0.33 µM; Measured concentration of PEA (analyte) (Beagle, dog, 10 min): 0.54 µM; Measured concentration of PEA (analyte) (Beagle, dog, 20 min): 0.46 µM; Measured concentration of PEA (analyte) (Beagle, dog, 30 min): 0.44 µM; Measured concentration of PEA (analyte) (Beagle, dog, 60 min): 0.20 µM; % Remaining of Initial (Beagle, dog, 0 h): 100%; % Remaining of Initial (Beagle, dog, 10 min): <1.0%; % Remaining of Initial (Beagle, dog, 20 min): <1.0%; % Remaining of Initial (Beagle, dog, 0.5 h): <1.0%; % Remaining of Initial (Beagle, dog, 1 h): <1.0%; Measured concentration of PEA (analyte) (CD-1, mouse, 0 min): 0.45 µM; Measured concentration of PEA (analyte) (CD-1, mouse, 10 min): 0.30 µM; Measured concentration of PEA (analyte) (CD-1, mouse, 20 min): 0.15 µM; Measured concentration of PEA (analyte) (CD-1, mouse, 30 min): 0.086 µM; Measured concentration of PEA (analyte) (CD-1, mouse, 60 min): 0 µM; % Remaining of Initial (CD-1, mouse, 0 h): 100%; % Remaining of Initial (CD-1, mouse, 10 min): <1.0%; % Remaining of Initial (CD-1, mouse, 20 min): <1.0%; % Remaining of Initial (CD-1, mouse, 0.5 h): <1.0%; % Remaining of Initial (CD-1, mouse, 1 h): <1.0%
CCCCCCCCCCCCCCCC(=O)NCCOC(=O)CCC [Compound I-2] | 0.23 µM | 0.48 µM | 0.38 µM | 0.29 µM | 0.17 µM | 100% | 5.4% | <1.0% | <1.0% | <1.0% | 581 µL/min/mg | 2.4 min | 0.48 µM | 0.34 µM | 0.19 µM | 0.12 µM | 0.023 µM | 100% | > 1380 µL/min/mg | < 1 min | % Remaining of Initial, 10 min (CD-1, mouse, 10 min): <1.0%; % Remaining of Initial, 20 min (CD-1, mouse, 20 min): <1.0%; % Remaining of Initial, 30 min (CD-1, mouse, 0.5 h): <1.0%; % Remaining of Initial, 60 min (CD-1, mouse, 1 h): <1.0%
CC/C=C\C/C=C\C/C=C\C/C=C\C/C=C\CCCC(=O)OCCNC(=O)CCCCCCCCCCCCCCC [Compound I-5] | 0.025 µM | 0.081 µM | 0.090 µM | 0.087 µM | 0.063 µM | 100% | 84% | 75% | 75% | 67% | < 23.1 µL/min/mg | > 60 min | 0.048 µM | 0.080 µM | 0.052 µM | 0.048 µM | 0.024 µM | 100% | 23.6 µL/min/mg | 59 min | microsomal CLint at 1 μM (Beagle, dog, calculated value in parentheses): 13.3 µL/min/mg; half-life at 1 μM (Beagle, dog, Calculated half-life (in parentheses)): 104 min; % Remaining of Initial, 10 min (CD-1, mouse, 10 min): 72%; % Remaining of Initial, 20 min (CD-1, mouse, 20 min): 57%; % Remaining of Initial, 30 min (CD-1, mouse, 0.5 h): 56%; % Remaining of Initial, 60 min (CD-1, mouse, 1 h): 55%
C[C@]12CC[C@H]3[C@@H](CCC4=CC(=O)CC[C@@]43C)[C@@H]1CC[C@@H]2O [Testosterone, testosterone, reference compound] | – | – | – | – | – | – | – | – | – | – | – | – | – | – | – | – | – | – | – | – | Half-life (control compound, mouse liver microsomes): 2.1 min; microsomal CLint (Beagle, Control Compound, Dog liver microsomes): 41.9 µL/min/mg; microsomal CLint (Beagle, Control compound, Dog liver microsomes): 41.5 µL/min/mg; microsomal CLint (Beagle, Dog liver microsomes, control compound): 41.9 µL/min/mg; microsomal CLint (Beagle, control compound, dog liver microsomes): 59.3 µL/min/mg; half-life (Beagle, Half-life, Control Compound, Dog liver microsomes): 33 min; half-life (Beagle, Half-life, Control compound, Dog liver microsomes): 33 min; half-life at 1 μM (Beagle, Half-life, Dog liver microsomes): 33 min; half-life (Beagle, Half-life, control compound, dog liver microsomes): 23 min; microsomal CLint (CD-1, mouse, Control Compound, Mouse liver microsomes): 444 µL/min/mg; microsomal CLint (CD-1, mouse, Mouse liver microsomes, control compound): 190 µL/min/mg; microsomal CLint (CD-1, mouse, control compound, mouse liver microsomes): 674 µL/min/mg; half-life (CD-1, mouse, Half-life, Control Compound, Mouse liver microsomes): 3.1 min; half-life (CD-1, mouse, Half-life, Control compound, Mouse liver microsomes): 4.9 min; half-life at 1 μM (CD-1, mouse, Half-life, Mouse liver microsomes): 7.3 min
